We go through two compounds from article PMC6555645 (Angewandte Chemie (International ed. in English), 2019).

The target in one experiment is T1, Tar14 (Saccharomonospora piscinae, UniProt W5VG40).
T1 sequence (W5VG40 1-534): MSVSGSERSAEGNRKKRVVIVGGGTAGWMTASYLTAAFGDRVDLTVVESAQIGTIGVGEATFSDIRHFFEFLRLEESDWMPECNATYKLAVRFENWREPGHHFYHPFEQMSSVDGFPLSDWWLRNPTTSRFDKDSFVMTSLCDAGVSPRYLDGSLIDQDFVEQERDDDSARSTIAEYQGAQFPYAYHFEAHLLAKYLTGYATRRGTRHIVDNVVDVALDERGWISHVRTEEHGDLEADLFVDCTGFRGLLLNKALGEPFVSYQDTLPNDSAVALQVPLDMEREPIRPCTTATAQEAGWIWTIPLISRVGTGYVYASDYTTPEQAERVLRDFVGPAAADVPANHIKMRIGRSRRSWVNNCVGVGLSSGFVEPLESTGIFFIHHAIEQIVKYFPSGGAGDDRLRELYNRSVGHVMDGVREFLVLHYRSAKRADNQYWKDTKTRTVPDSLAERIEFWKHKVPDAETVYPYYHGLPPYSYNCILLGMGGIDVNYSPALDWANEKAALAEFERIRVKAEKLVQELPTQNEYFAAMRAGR
Briefly: in vitro chlorination assay. Format: biochemical. To be noted: with flavin and a flavin reductase system; chloride.

Another experiment deals with T2, Tar13 (Saccharomonospora piscinae, UniProt W5VMS0).
T2 sequence (W5VMS0 1-236): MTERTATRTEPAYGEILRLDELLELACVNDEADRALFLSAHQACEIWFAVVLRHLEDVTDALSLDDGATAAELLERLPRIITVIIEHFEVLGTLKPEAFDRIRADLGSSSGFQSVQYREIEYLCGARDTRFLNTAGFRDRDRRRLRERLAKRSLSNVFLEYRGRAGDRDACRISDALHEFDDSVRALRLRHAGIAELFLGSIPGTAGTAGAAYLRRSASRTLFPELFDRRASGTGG
Briefly: in vitro dioxygenase assay. The conditions noted are these: heme-dependent TDO; O2. Type of experiment: biochemical.

Regarding `N[C@@H](Cc1c[nH]c2ccccc12)C(=O)O` [compound 4, L-Trp], the Km at Tar14 stood at 12 µM. In the case of `N[C@@H](Cc1c[nH]c2cc(Cl)ccc12)C(=O)O` [compound 7, L-6-Cl-Trp], the Km on Tar13 worked out at 112 µM.
